Source: publication PMC4729137, “Functional analysis of androgen receptor mutations that confer anti-androgen resistance identified in circulating cell-free DNA from prostate cancer patients” (Genome Biology, 2016)
Numbering of substitutions follows the chain as printed.

Assays:
[1] = biological target: T1, E894K-AR (Homo sapiens, UniProt P10275, E894K); assay type: cell-based; conditions: AR mutant E894K; transfected PC3 cells; 0.1 nM R1881; drug 0 to 50 μM
T1 sequence (P10275 1-920 E894K): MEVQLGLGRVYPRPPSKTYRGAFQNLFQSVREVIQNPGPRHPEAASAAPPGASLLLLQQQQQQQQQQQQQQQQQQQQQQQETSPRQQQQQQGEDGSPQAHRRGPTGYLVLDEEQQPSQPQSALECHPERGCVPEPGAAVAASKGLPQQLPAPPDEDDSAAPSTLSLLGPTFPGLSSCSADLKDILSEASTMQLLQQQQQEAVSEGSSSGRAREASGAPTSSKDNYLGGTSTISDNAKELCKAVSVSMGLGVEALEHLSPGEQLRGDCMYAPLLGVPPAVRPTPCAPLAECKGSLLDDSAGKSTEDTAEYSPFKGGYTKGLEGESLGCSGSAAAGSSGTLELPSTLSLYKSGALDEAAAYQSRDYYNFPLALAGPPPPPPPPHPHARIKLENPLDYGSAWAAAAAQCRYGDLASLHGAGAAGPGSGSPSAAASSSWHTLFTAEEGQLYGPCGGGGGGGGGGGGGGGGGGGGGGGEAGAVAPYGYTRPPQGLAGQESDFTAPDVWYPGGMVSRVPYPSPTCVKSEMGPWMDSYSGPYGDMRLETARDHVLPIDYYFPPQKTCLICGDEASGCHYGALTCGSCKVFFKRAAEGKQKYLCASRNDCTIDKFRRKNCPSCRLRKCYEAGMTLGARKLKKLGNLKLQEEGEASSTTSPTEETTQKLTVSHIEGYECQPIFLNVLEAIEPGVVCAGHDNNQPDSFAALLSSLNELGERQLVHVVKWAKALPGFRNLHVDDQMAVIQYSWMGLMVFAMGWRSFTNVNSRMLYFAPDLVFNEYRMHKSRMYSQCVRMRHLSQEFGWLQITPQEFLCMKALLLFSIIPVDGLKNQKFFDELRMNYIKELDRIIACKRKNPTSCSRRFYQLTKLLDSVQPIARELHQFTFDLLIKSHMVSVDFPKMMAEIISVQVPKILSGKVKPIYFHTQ
From the text: (§1) Full-length human AR (WT-AR) was encoded on a pcDNA3.1 expression plasmid (Life technologies). The LBD point mutations (single and multiple) were generated using the QuikChange II Site-Directed Mutagenesis Kit (Agilent Technologies) as per manufacturer’s instructions using WT-AR as the template. The mutagenic oligonucleotide primers were designed individually with the desired mutation in the middle of the primer with approximately 10 to 15 bases of correct sequence on both sides.
(§2) PC3 cells were seeded and transfected as described above. […] A non-stimulated/no R1881 control was used. After 24 h, cells were lysed and AR-dependent luciferase activity was quantified. Each concentration was assayed in quadruplicate n = 4, with a biological replicate of n = 3. Results were averaged and normalized by expressing them as a percentage of WT AR activity.

[2] = biological target: T2, D880E-AR (Homo sapiens, UniProt P10275, D880E); assay type: cell-based; conditions: AR mutant D880E; transfected PC3 cells; 0.1 nM R1881; drug 0 to 50 μM
T2 sequence (P10275 1-920 D880E): T1 sequence (P10275 1-920 E894K) with D880E, K894E
From the text: as §1, §2

## CC(C)(O)C(=O)Nc1ccc([N+](=O)[O-])c(C(F)(F)F)c1 [Hydroxyflutamide, hydroxyflutamide]
[1]
  Agonist response to treatment: Partial
[2]
  Agonist response to treatment: Partial
